From US12214058B2, “Imaging methods using deuterated compounds” (Genentech, Inc., priority 2014, dated 2025)

What was measured:
[1] = Dynamic microPET imaging in mice; assay type: in vivo, mice (C57BL/6)
Method: MicroPET Imaging The PET imaging was performed on Inveon PET/CT scanner (Siemens Medical Solutions USA Inc.). Animals anesthetized with sevoflurane were placed head-first, prone position on the scanner bed and dynamic 45 min scans were initiated. Approximately 3.7 MBq of ^18F-radiolabeled tracer in isotonic solution (100-130 μL) was administered as 60 second intravenous infusion via the tail vein. Body temperature was measured by a rectal probe and maintained with warm air flow at 37° C. Full-body iterative image reconstructions were obtained using maximum a posteriori algorithm (MAP, hyperparameter β 0.05) and corrected for signal attenuation using the tissue density obtained from CT. Projections were created with PMOD 3.305 (PMOD Technologies, Ltd., Zurich, Switzerland) and used to obtain quantitative activity levels in each organ of interest using region-of-interest analysis.

[2] = system: tau (NFTs) in human brain tissues; test: Autoradiography on postmortem human brain tissues; assay type: binding
Method: Autoradiography The tracer [^18F][A] or [^18F][A]-d2 was dissolved in PBS containing 5% DMSO and 5% ethanol at final concentration 40 μCi/mL. Then 0.5 ml of stock solution was transferred to a microscope slide with 5 μm thick freshly dried section of a tissue and incubated for 90 min at room temperature. The slides were washed by dipping into following solutions: PBS for 1 min, 70% ethanol 2 min, 30% ethanol 2 min and PBS 1 min. The samples were dried at room temperature for 30 min and exposed to phosphorimager plate for 20 h. The exposed plates were scanned at 25 μm resolution.
Autoradiographic evaluation of [^18F][A] and [^18F][A]-d2 was performed using brain tissues collected postmortem from human donors. […] The positive staining was found in grey matter of tissues containing high level of NFTs and high AD-amyloid characterized as Braak score 5. […] The NFT and Aβ-amyloid burden was measured by standard immunohistochemical methods.

[3] = system: tau; test: Human PET imaging with [18F][A]-d2 (SUVR); assay type: in vivo; conditions: for SUVR Frontal lobe / SUVR Occipital lobe / SUVR Parietal lobe / SUVR Temporal lobe / SUVR White matter: cerebellum gray as reference
Description: A total of 5 subjects, 3 Alzheimer's disease (AD) patients and 2 healthy volunteers (HV) was used in this study. This study protocol required each subject to complete the following components: screening evaluation, MRI, [^18F]florbetapir (AD subjects only) and [^18F][A]-d2. The screening procedures included neuropsychological assessment, vital signs, ECG, physical exam, MRI, and [^18F]florbetapir PET imaging to confirm presence of amyloid deposition in patients clinically diagnosed with probable AD. In addition, each subject completed clinical assessments and clinical safety labs to ensure the subject was medically stable to complete the study protocol. The screening procedures occurred within 30 days prior to [^18F][A]-d2 imaging. Eligible subjects participated in a single [^18F][A]-d2 imaging session. The distribution of tau binding was assessed in each of the subject groups (AD and HV) to evaluate for binding to tau. For each AD subject, the distribution of Aβ and tau was compared. Tau binding in brain was assessed with PET using [^18F][A]-d2. Radioligand binding was compared in brains of HV subjects who should have minimal to negligible concentrations of tau compared to patients with AD, who are expected to have moderate to high densities of tau.
All subjects received a single injection of [^18F][A]-d2. Subjects received a bolus intravenous injection of no more than 370 MBq (˜10 mCi).
Images were acquired using a HR+ PET camera in three-dimensional mode and were reconstructed using an iterative algorithm including scatter and measured attenuation correction (^68Ge source). Dynamic images were acquired upon injection (˜370 MBq). The scanning protocol consisted of 2 scanning segments in the two healthy control (HC) subjects, Subjects 1 & 2 (0-120 min and ˜150-180 min) and of 3 segments in the suspected AD patient, Subject 3 (0-60 min, 93-123 min and 147-177 min).
The MR volumetric image, a summed image of the first 15 min after tracer administration of [^18F][A]-d2 were coregistered using Statistical Parametic Mapping SPM8 (software provided by members and collaborators of the Wellcome Trust Centre for Neuroimaging). Alignment of the additional PET segments to the first PET segment was performed using in-house developed analysis software written in Matlab® (version 8 Release 2014a). Then, using the MRI scan for anatomical delineation, irregular regions of interest (ROI) were drawn for each subject in the frontal, parietal, occipital, and temporal lobes, cerebellum gray, and white-matter (centrum semi-ovale) using MIM® software.
[^18F][A]-d2 tissue time activity curves (TAC) were expressed in SUV (Standardized Uptake Value) using each subject's weight and the corresponding tracer injected dose: TAC(SUV)=TAC(Bq/cm^3)×1000 cm^3/kg×Subject's weight(kg)/Injected dose(Bq). TAC creation and all subsequent analyses were performed using in-house developed analysis software written in Matlab®.
The ratio to cerebellum gray or standardized uptake value ratio (SUVR) was calculated. […] A clear separation of the curves is observed as early as 30 min post injection. The SUVR curves in the two healthy controls remained relatively constant soon after injection. The SUVR in the AD subject reached a plateau in the 90-120 min interval.

[4] = 40-60 min interval, Subject 1 (HC)
[5] = 40-60 min interval, Subject 2 (HC)
[6] = 40-60 min interval, Subject 3 (AD)
[7] = 90-120 min interval, Subject 1 (HC)
[8] = 90-120 min interval, Subject 2 (HC)
[9] = 90-120 min interval, Subject 3 (AD)

Q: With `[2H]C([2H])([18F])CC1CCN(c2ccn3c(n2)nc2ccccc23)CC1` [[^18F][A]-d2, 1,1-dideutero-2-(1-(benzo[4,5]imidazo[1,2-a]pyrimidine-2-yl)piperidin-4-yl)-1-[^18F]fluoroethane] as the compound, how does the “reduction in bone uptake versus [18F][A]” value ([1]; in vivo PET) read?
A: The value was about 54%.

Q: And the “uptake in liver and kidneys, comparison of the two tracers” value ([1]; n=6)?
A: The value was “indistinguishable”.

Q: And the bone uptake ([1]; n=6, 30-45 min post tracer injection)?
A: The bone uptake was 14.3±1.7 % ID/g.

Q: What about the “peak uptake in brain” value ([1]; n=6, i.v., dynamic PET) of the same compound?
A: Its value is 7.4±2.2 % ID/g.

Q: And the “staining of negative control tissues” value ([2]; high or moderate amyloid burden but no NFTs, Braak score 3 or 2)?
A: The value was “not positively stained”.

Q: What about the autoradiographic binding pattern ([2]; human brain tissues, positive staining in grey matter with high NFTs, Braak score 5) of the same compound?
A: Its autoradiographic binding pattern is “tau specific binding patterns”.

Q: And the “SUVR Frontal lobe” value [3, 4]?
A: The value was 1.08.

Q: What about the “SUVR Occipital lobe” value [3, 4] of the same compound?
A: The value was 1.15.

Q: What about the “SUVR Parietal lobe” value [3, 4] of the same compound?
A: The value was 1.09.

Q: And the “SUVR Temporal lobe” value [3, 4]?
A: Its value is 1.14.

Q: What about the “SUVR White matter” value [3, 4] of the same compound?
A: Its value is 0.85.

Q: And the “SUVR Frontal lobe” value [3, 5]?
A: The value was 1.12.

Q: What about the “SUVR Occipital lobe” value [3, 5] of the same compound?
A: The value was 1.19.

Q: What about the “SUVR Parietal lobe” value [3, 5] of the same compound?
A: The value was 1.13.

Q: And the “SUVR Temporal lobe” value [3, 5]?
A: The value was 1.18.

Q: What about the “SUVR White matter” value [3, 5] of the same compound?
A: The value was 0.80.

Q: And the “SUVR Frontal lobe” value [3, 6]?
A: The value was 1.16.

Q: And the “SUVR Occipital lobe” value [3, 6]?
A: The value was 1.60.

Q: What about the “SUVR Parietal lobe” value [3, 6] of the same compound?
A: The value was 1.35.

Q: What about the “SUVR Temporal lobe” value [3, 6] of the same compound?
A: The value was 1.82.

Q: What about the “SUVR White matter” value [3, 6] of the same compound?
A: The value was 0.88.

Q: And the “SUVR Frontal lobe” value [3, 7]?
A: The value was 1.07.

Q: And the “SUVR Occipital lobe” value [3, 7]?
A: The value was 1.19.

Q: What about the “SUVR Parietal lobe” value [3, 7] of the same compound?
A: The value was 1.07.

Q: And the “SUVR Temporal lobe” value [3, 7]?
A: Its value is 1.13.

Q: What about the “SUVR White matter” value [3, 7] of the same compound?
A: Its value is 0.76.

Q: And the “SUVR Frontal lobe” value [3, 8]?
A: The value was 1.17.

Q: What about the “SUVR Occipital lobe” value [3, 8] of the same compound?
A: The value was 1.21.

Q: What about the “SUVR Parietal lobe” value [3, 8] of the same compound?
A: The value was 1.07.

Q: And the “SUVR Temporal lobe” value [3, 8]?
A: Its value is 1.18.

Q: And the “SUVR White matter” value [3, 8]?
A: Its value is 0.66.

Q: What about the “SUVR Frontal lobe” value [3, 9] of the same compound?
A: The value was 1.25.

Q: And the “SUVR Occipital lobe” value [3, 9]?
A: Its value is 1.87.

Q: What about the “SUVR Parietal lobe” value [3, 9] of the same compound?
A: Its value is 1.52.

Q: What about the “SUVR Temporal lobe” value [3, 9] of the same compound?
A: The value was 2.25.

Q: What about the “SUVR White matter” value [3, 9] of the same compound?
A: The value was 0.81.

Q: And the “radioactivity uptake in bone tissue” value ([3]; Subjects 1-3, human PET images)?
A: The value was “no radioactivity uptake in bone tissue”.
